ChEMBL document CHEMBL1201862, “PubChem BioAssay data set” (2004)
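Growth conditions: 96-well plates. Treatment: test compound, 48 hours, 5 concentrations. Analysis: linear interpolation between bracketing concentrations; unreached endpoints set to highest concentration. GI50: concentration for 50% inhibition of growth.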 The source made the active and inactive calls. Cut-off read from the data, not from the text of the source: active = GI50 up to about 1.1 µM and inactive = higher.

Experiments:
Assay in all cases: NCI tumour cell line growth inhibition, 48 h
A498 = tested on: A498
CAKI-1 = tested on: CAKI-1
CCRF-CEM = tested on: CCRF-CEM
COLO 205 = tested on: COLO 205
HCT-15 = tested on: HCT-15
MDA-MB-435 = tested on: MDA-MB-435
NCI-H460 = tested on: NCI-H460
NCI-H522 = tested on: NCI-H522
RPMI-8226 = tested on: RPMI-8226
SK-OV-3 = tested on: SK-OV-3
SW-620 = tested on: SW-620
TK-10 = tested on: TK-10
U-251 = tested on: U-251
UACC-257 = tested on: UACC-257
UO-31 = tested on: UO-31
786-0 = tested on: 786-0
A549 = tested on: A549
ACHN = tested on: ACHN
DU-145 = tested on: DU-145
EKVX = tested on: EKVX
HCT-116 = tested on: HCT-116
HL-60 = tested on: HL-60
HOP-62 = tested on: HOP-62
HOP-92 = tested on: HOP-92
HT-29 = tested on: HT-29
Hs-578T = tested on: Hs-578T
IGROV-1 = tested on: IGROV-1
K562 = tested on: K562
KM12 = tested on: KM12
LOX IMVI = tested on: LOX IMVI
M14 = tested on: M14
MCF7 = tested on: MCF7
MDA-MB-231 = tested on: MDA-MB-231
MDA-N = tested on: MDA-N
MOLT-4 = tested on: MOLT-4
Malme-3M = tested on: Malme-3M
NCI-H23 = tested on: NCI-H23
NCI/ADR-RES = tested on: NCI/ADR-RES
OVCAR-3 = tested on: OVCAR-3
OVCAR-4 = tested on: OVCAR-4
OVCAR-5 = tested on: OVCAR-5
OVCAR-8 = tested on: OVCAR-8
PC-3 = tested on: PC-3
SF-268 = tested on: SF-268
SF-295 = tested on: SF-295
SF-539 = tested on: SF-539
SK-MEL-28 = tested on: SK-MEL-28
SK-MEL-2 = tested on: SK-MEL-2
SK-MEL-5 = tested on: SK-MEL-5
SN12C = tested on: SN12C
SNB-19 = tested on: SNB-19
SNB-75 = tested on: SNB-75
SR = tested on: SR
T47D = tested on: T47D
HCC 2998 = tested on: HCC 2998
NCI-H226 = tested on: NCI-H226
RXF 393 = tested on: RXF 393

`COc1cc(O)c2c(=O)c(OC)c(-c3ccc(OC)c(OC)c3)oc2c1` [RETUSIN] was tested, and the GI50 (A498) was 16.1 µM (inactive), the GI50 (CAKI-1) was 6.17 µM (inactive) and the GI50 (CCRF-CEM) was > 100 µM (inactive). For the same compound, the GI50 (COLO 205) was > 100 µM (inactive), the GI50 (HCT-15) was > 100 µM and the GI50 (MDA-MB-435) was > 100 µM (inactive). For the same compound, the GI50 (NCI-H460) was 20 µM (inactive), the GI50 (NCI-H522) was 2.79 µM (inactive) and the GI50 (RPMI-8226) was 87.7 µM (inactive). For the same compound, the GI50 (SK-OV-3) was 5.02 µM (inactive), the GI50 (SW-620) was > 100 µM (inactive) and the GI50 (TK-10) was > 100 µM (inactive). For the same compound, the GI50 (U-251) was 15.1 µM (inactive), the GI50 (UACC-257) was > 100 µM (inactive) and the GI50 (UO-31) was > 100 µM (inactive).

For `CC1CN=C(N(C(=O)Nc2ccc(F)c(Cl)c2)c2ccccc2)S1` (stereo not given), the GI50 (786-0) was 22.9 µM (inactive), the GI50 (A498) was 21.1 µM (inactive) and the GI50 (A549) was 24.2 µM (inactive). The GI50 (ACHN) was 25.5 µM (inactive), the GI50 (CAKI-1) was 21 µM (inactive) and the GI50 (CCRF-CEM) was 31.3 µM (inactive). The GI50 (COLO 205) was 19.3 µM (inactive), the GI50 (DU-145) was 36.8 µM (inactive) and the GI50 (EKVX) was 22 µM (inactive). For the same compound, the GI50 (HCT-116) was 21.5 µM (inactive), the GI50 (HCT-15) was 22.4 µM and the GI50 (HL-60) was > 10 µM (inactive). For the same compound, the GI50 (HOP-62) was 27.6 µM (inactive), the GI50 (HOP-92) was 20.3 µM (inactive) and the GI50 (HT-29) was 22.9 µM (inactive). The GI50 (Hs-578T) was 38.5 µM (inactive), the GI50 (IGROV-1) was 27.8 µM (inactive) and the GI50 (K562) was 27 µM (inactive). The GI50 (KM12) was 26.5 µM (inactive), the GI50 (LOX IMVI) was 17.5 µM (inactive) and the GI50 (M14) was 28.4 µM (inactive). For the same compound, the GI50 (MCF7) was 10.4 µM (inactive), the GI50 (MDA-MB-231) was 17.7 µM (inactive) and the GI50 (MDA-N) was 18.9 µM (inactive). The GI50 (MOLT-4) was 16.7 µM (inactive), the GI50 (Malme-3M) was 30.3 µM (inactive) and the GI50 (NCI-H23) was 19.2 µM (inactive). For the same compound, the GI50 (NCI-H460) was 25.4 µM (inactive), the GI50 (NCI/ADR-RES) was 17.9 µM (inactive) and the GI50 (OVCAR-3) was 34.5 µM (inactive). For the same compound, the GI50 (OVCAR-4) was 48.3 µM (inactive), the GI50 (OVCAR-5) was 28.2 µM (inactive) and the GI50 (OVCAR-8) was 23.9 µM (inactive). For the same compound, the GI50 (PC-3) was 24.1 µM (inactive), the GI50 (RPMI-8226) was 25.8 µM (inactive) and the GI50 (SF-268) was 27.5 µM (inactive). The GI50 (SF-295) was 31.3 µM (inactive), the GI50 (SF-539) was 41.1 µM (inactive) and the GI50 (SK-MEL-28) was 15.1 µM (inactive). For the same compound, the GI50 (SK-MEL-2) was 17.5 µM (inactive), the GI50 (SK-MEL-5) was 16.4 µM (inactive) and the GI50 (SK-OV-3) was 33.6 µM (inactive). The GI50 (SN12C) was 17.2 µM (inactive), the GI50 (SNB-19) was 43.2 µM (inactive) and the GI50 (SNB-75) was 23.2 µM (inactive). For the same compound, the GI50 (SR) was > 10 µM (inactive), the GI50 (SW-620) was 27.5 µM (inactive) and the GI50 (T47D) was 16.8 µM (inactive). The GI50 (TK-10) was 25.9 µM (inactive), the GI50 (U-251) was 20.6 µM (inactive) and the GI50 (UACC-257) was 24.6 µM (inactive). The GI50 (UO-31) was 25.8 µM (inactive).

In the case of `O=c1nc2ccc3sc4ccccc4c(=O)c3n2c(=O)[nH]1`, the GI50 (786-0) was > 100 µM (inactive), the GI50 (A498) was > 100 µM (inactive) and the GI50 (A549) was > 100 µM (inactive). For the same compound, the GI50 (ACHN) was > 100 µM (inactive), the GI50 (CAKI-1) was > 100 µM (inactive) and the GI50 (CCRF-CEM) was > 100 µM (inactive). The GI50 (COLO 205) was > 100 µM (inactive), the GI50 (DU-145) was > 100 µM (inactive) and the GI50 (EKVX) was 11.7 µM (inactive). The GI50 (HCC 2998) was > 100 µM (inactive), the GI50 (HCT-116) was > 100 µM (inactive) and the GI50 (HCT-15) was > 100 µM. The GI50 (HL-60) was 83.4 µM (inactive), the GI50 (HOP-62) was > 100 µM (inactive) and the GI50 (HT-29) was > 100 µM (inactive). The GI50 (Hs-578T) was 19.4 µM (inactive), the GI50 (IGROV-1) was > 100 µM (inactive) and the GI50 (K562) was > 100 µM (inactive). The GI50 (KM12) was > 100 µM (inactive), the GI50 (LOX IMVI) was > 100 µM (inactive) and the GI50 (MCF7) was > 100 µM (inactive). For the same compound, the GI50 (MDA-MB-231) was > 100 µM (inactive), the GI50 (MDA-MB-435) was > 100 µM (inactive) and the GI50 (MDA-N) was > 100 µM (inactive). The GI50 (MOLT-4) was > 100 µM (inactive), the GI50 (Malme-3M) was > 100 µM (inactive) and the GI50 (NCI-H226) was > 100 µM (inactive). For the same compound, the GI50 (NCI-H23) was > 100 µM (inactive), the GI50 (NCI-H460) was > 100 µM (inactive) and the GI50 (NCI-H522) was 73.8 µM (inactive). The GI50 (NCI/ADR-RES) was > 100 µM (inactive), the GI50 (OVCAR-3) was > 100 µM (inactive) and the GI50 (OVCAR-4) was > 100 µM (inactive). The GI50 (OVCAR-5) was > 100 µM (inactive), the GI50 (OVCAR-8) was > 100 µM (inactive) and the GI50 (PC-3) was > 100 µM (inactive). For the same compound, the GI50 (RPMI-8226) was > 100 µM (inactive), the GI50 (RXF 393) was > 100 µM (inactive) and the GI50 (SF-268) was 98.2 µM (inactive). The GI50 (SF-295) was > 100 µM (inactive), the GI50 (SF-539) was > 100 µM (inactive) and the GI50 (SK-MEL-28) was > 100 µM (inactive). The GI50 (SK-MEL-5) was > 100 µM (inactive), the GI50 (SN12C) was > 100 µM (inactive) and the GI50 (SNB-19) was > 100 µM (inactive). For the same compound, the GI50 (SNB-75) was > 100 µM (inactive), the GI50 (SR) was > 100 µM (inactive) and the GI50 (SW-620) was > 100 µM (inactive). For the same compound, the GI50 (TK-10) was 66.7 µM (inactive), the GI50 (U-251) was > 100 µM (inactive) and the GI50 (UACC-257) was > 100 µM (inactive). The GI50 (UO-31) was > 100 µM (inactive).

`Nc1ccn([C@@H]2CS[C@H](CO)O2)c(=O)n1` [LAMIVUDINE] was tested, and the GI50 (NCI-H23) was > 100 µM (inactive).
